The values that follow come from ChEMBL document CHEMBL1128346, “Peptidyl alpha-ketoheterocyclic inhibitors of human neutrophil elastase. 2. Effect of varying the heterocyclic ring on in vitro potency” (J Med Chem, 1995).

The first assay has as its target T1, Neutrophil elastase (Homo sapiens, UniProt P08246).
T1 sequence (P08246 whole entry): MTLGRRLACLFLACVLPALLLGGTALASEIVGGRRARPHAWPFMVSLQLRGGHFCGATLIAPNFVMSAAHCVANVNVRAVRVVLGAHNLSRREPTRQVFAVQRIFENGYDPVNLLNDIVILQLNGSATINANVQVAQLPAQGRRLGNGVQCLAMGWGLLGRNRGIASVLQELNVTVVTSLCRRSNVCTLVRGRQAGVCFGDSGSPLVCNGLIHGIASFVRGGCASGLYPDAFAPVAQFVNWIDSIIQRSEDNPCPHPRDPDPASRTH
Put plainly: In vitro inhibitory activity against human neutrophil elastase (HNE) catalyzed hydrolysis of the synthetic substrate MeO-Suc-Ala- Ala-Pro-Val-pN; 'b' means could not be accurately determined due to low solubility.
Consider `CC(C)[C@H](NC(=O)[C@@H]1CCCN1C(=O)[C@@H](NC(=O)OCc1ccccc1)C(C)C)C(=O)c1cc2ccccc2s1`, for which the Ki (commonly the dissociation constant of the complex between target and ligand, obtained from inhibition or displacement) is “Could not be accurately determined due to low solubility”.

The next assay has as its target T1, Neutrophil elastase. Put plainly: In vitro inhibitory activity against human neutrophil elastase (HNE) catalyzed hydrolysis of the synthetic substrate MeO-Suc-Ala- Ala-Pro-Val-pN.
In turn, `CC(C)[C@H](NC(=O)[C@@H]1CCCN1C(=O)[C@@H](NC(=O)OCc1ccccc1)C(C)C)C(=O)C1=N[C@@H](C)CO1` came in with an inhibition constant Ki of 1.2 nM. As for `CC(C)[C@H](NC(=O)[C@@H]1CCCN1C(=O)[C@@H](NC(=O)OCc1ccccc1)C(C)C)C(=O)C(N)=O`, the affinity corresponds to a Ki of 1.8 nM. `CC(C)[C@H](NC(=O)OCc1ccccc1)C(=O)N1CCC[C@H]1C(=O)N[C@H](C(=O)C(F)(F)C(=O)NCc1ccccc1)C(C)C` displayed an inhibitory constant (Ki) of 0.4 nM.

Turning to `CCCCC(=O)C(=O)[C@@H](NC(=O)[C@@H]1CCCN1C(=O)[C@@H](NC(=O)OCc1ccccc1)C(C)C)C(C)C`, the Ki amounted to 1.6 nM. Compared with the last molecule, the Ki is about 4-fold higher. Molecule `COC(=O)C(=O)[C@@H](NC(=O)[C@@H]1CCCN1C(=O)[C@@H](NC(=O)OCc1ccccc1)C(C)C)C(C)C` registered an inhibition constant (Ki) of 0.6 nM. `CCOc1cccnc1C(=O)[C@@H](NC(=O)[C@@H]1CCCN1C(=O)[C@@H](NC(=O)OCc1ccccc1)C(C)C)C(C)C` had a Ki of 87000 nM. This counts as double-digit micromolar. The molecule `CC(C)[C@H](NC(=O)[C@@H]1CCCN1C(=O)[C@@H](NC(=O)OCc1ccccc1)C(C)C)C(=O)c1nnn(C)n1` yielded a Ki of 49 nM. Consider `CC(C)[C@H](NC(=O)[C@@H]1CCCN1C(=O)[C@@H](NC(=O)OCc1ccccc1)C(C)C)C(=O)c1ncoc1-c1ccccc1`, for which the affinity, expressed as Ki, was 330 nM. `CC(C)[C@H](NC(=O)[C@@H]1CCCN1C(=O)[C@@H](NC(=O)OCc1ccccc1)C(C)C)C(=O)c1nnnn1C` showed an inhibition constant Ki of 410 nM.
